Assay results taken from patent US20200093130A1, “APPLICATION OF TETRAHYDROBENZAZOLE IN PREPARATION OF AGRICULTURAL FUNGICIDE OR FUNGICIDE COMPOSITION AND PREPARATION METHOD THEREOF” (JIANGSU FREY AGROCHEMICALS CO., LTD, priority 2017, published 2020).
Read-outs that look alike come from different tables or passages of the source.

Experiments:
Pyricularia grisea = assay type: cell-based; settings: Rice blast
Rhizoctonia solani = experiment: In vitro fungicidal activity, growth rate method (Rice sheath blight); assay type: cell-based
[1] = tested on: Helminthosporium carposaprum; experiment: In vitro fungicidal activity, growth rate method (Corn spot); assay type: cell-based
Mycosphaerella musicola = experiment: In vitro fungicidal activity, growth rate method (Banana leaf spot disease); assay type: cell-based
[2] = tested on: Fusarium oxysporum f. sp cucumerinum; experiment: In vitro fungicidal activity, growth rate method (Cucumber fusarium wilt); assay type: cell-based; design: key: “—” means the activity is not obvious
Botryosphaeria = experiment: In vitro fungicidal activity, growth rate method (Apple ring spot); assay type: cell-based; design: key: “—” means the activity is not obvious
[3] = tested on: Alternaria alternata (Fr.) Keissl; experiment: In vitro fungicidal activity, growth rate method (Apple altermaria leaf spot); assay type: cell-based
Erysiphe = experiment: In vitro fungicidal activity, growth rate method (Strawberry powdery mildew); assay type: cell-based
Botrytis cinerea [4] = experiment: In vitro fungicidal activity, growth rate method (Strawberry grey mold); assay type: cell-based; design: key: “—” means the activity is not obvious
Sclerotinia sclerotiorum [5] = experiment: In vitro fungicidal activity, growth rate method (Chili sclerotium); assay type: cell-based
Altemaria solani = experiment: In vitro fungicidal activity, growth rate method (Tomato early blight); assay type: cell-based
[6] = tested on: Sinoe ampelina (de Bary) Shear; experiment: In vitro fungicidal activity, growth rate method (Grape anthracnose); assay type: cell-based; design: key: “—” means the activity is not obvious
Cercospora arachidicola = experiment: In vitro fungicidal activity, growth rate method (Peanut brown spot); assay type: cell-based; design: key: “—” means the activity is not obvious
Phytophthora = assay type: cell-based; settings: Potato late blight
Alternaria kikuchiana = experiment: In vitro fungicidal activity, growth rate method (Pear black spot); assay type: cell-based
[7] = In vitro fungicidal activity, growth rate method (Colletotrichum capsici); assay type: cell-based, Acanthopteris fungi; settings: plant disease Colletotrichum capsici
[8] = tested on: Sphaerotheca fuliginea (Schlecht) Poll.; experiment: In vitro fungicidal activity, growth rate method (Cucumber powdery mildew); assay type: cell-based
Fusarium moniliforme = experiment: In vitro fungicidal activity, growth rate method (Rice bakanae disease); assay type: cell-based; design: key: “—” means the activity is not obvious
Sclerotinia sclerotiorum [9] = experiment: In vitro fungicidal activity, growth rate method (Cucumber sclerotinia rot); assay type: cell-based
[10] = assay type: cell-based, Acinomycete spiculata; settings: Cucumber anthrax
Botrytis cinerea [11] = experiment: In vitro fungicidal activity, growth rate method (Cucumber gray mold); assay type: cell-based; design: key: “—” means the activity is not obvious

## CC1COC(Cn2cnnc2)(c2ccc(Oc3ccc(Cl)cc3)cc2Cl)O1 (stereo not drawn) [Formula I, 4-((-(2-chloro-4-(4-chlorophenoxy)phenyl)-4-methyl-1,3-dioxapentan-2-yl)methyl)-4H-1,2,4-triazole]
Pyricularia grisea; 1 μg/mL
  Fungicidal activity (inhibition ratio %): 11.94%
Pyricularia grisea; 5 μg/mL
  Fungicidal activity (inhibition ratio %): 25.37%
Pyricularia grisea; 10 μg/mL
  Fungicidal activity (inhibition ratio %): 44.73%
Pyricularia grisea; 15 μg/mL
  Fungicidal activity (inhibition ratio %): 58.23%
Pyricularia grisea; 20 μg/mL
  Fungicidal activity (inhibition ratio %): 67.59%
Rhizoctonia solani; 1 μg/mL
  Fungicidal activity (inhibition ratio %): 37.80%
Rhizoctonia solani; 5 μg/mL
  Fungicidal activity (inhibition ratio %): 52.79%
Rhizoctonia solani; 10 μg/mL
  Fungicidal activity (inhibition ratio %): 68.48%
Rhizoctonia solani; 15 μg/mL
  Fungicidal activity (inhibition ratio %): 72.82%
Rhizoctonia solani; 20 μg/mL
  Fungicidal activity (inhibition ratio %): 82.56%
[1]; 1 μg/mL
  Fungicidal activity (inhibition ratio %): 8.92%
[1]; 5 μg/mL
  Fungicidal activity (inhibition ratio %): 22.44%
[1]; 10 μg/mL
  Fungicidal activity (inhibition ratio %): 33.45%
[1]; 15 μg/mL
  Fungicidal activity (inhibition ratio %): 44.46%
[1]; 20 μg/mL
  Fungicidal activity (inhibition ratio %): 53.22%
Mycosphaerella musicola; 1 μg/mL
  Fungicidal activity (inhibition ratio %): 25.26%
Mycosphaerella musicola; 5 μg/mL
  Fungicidal activity (inhibition ratio %): 31.30%
Mycosphaerella musicola; 10 μg/mL
  Fungicidal activity (inhibition ratio %): 43.35%
Mycosphaerella musicola; 15 μg/mL
  Fungicidal activity (inhibition ratio %): 52.11%
Mycosphaerella musicola; 20 μg/mL
  Fungicidal activity (inhibition ratio %): 66.76%
[2]; 1 μg/mL
  Fungicidal activity (inhibition ratio %): —
[2]; 5 μg/mL
  Fungicidal activity (inhibition ratio %): —
[2]; 10 μg/mL
  Fungicidal activity (inhibition ratio %): 18.32%
[2]; 15 μg/mL
  Fungicidal activity (inhibition ratio %): 31.77%
[2]; 20 μg/mL
  Fungicidal activity (inhibition ratio %): 48.18%
Botryosphaeria; 1 μg/mL
  Fungicidal activity (inhibition ratio %): —
Botryosphaeria; 5 μg/mL
  Fungicidal activity (inhibition ratio %): 41.28%
Botryosphaeria; 10 μg/mL
  Fungicidal activity (inhibition ratio %): 53.56%
Botryosphaeria; 15 μg/mL
  Fungicidal activity (inhibition ratio %): 68.76%
Botryosphaeria; 20 μg/mL
  Fungicidal activity (inhibition ratio %): 73.46%
[3]; 1 μg/mL
  Fungicidal activity (inhibition ratio %): 26.94%
[3]; 5 μg/mL
  Fungicidal activity (inhibition ratio %): 34.48%
[3]; 10 μg/mL
  Fungicidal activity (inhibition ratio %): 52.31%
[3]; 15 μg/mL
  Fungicidal activity (inhibition ratio %): 66.71%
[3]; 20 μg/mL
  Fungicidal activity (inhibition ratio %): 74.65%
Erysiphe; 1 μg/mL
  Fungicidal activity (inhibition ratio %): 33.24%
Erysiphe; 5 μg/mL
  Fungicidal activity (inhibition ratio %): 54.62%
Erysiphe; 10 μg/mL
  Fungicidal activity (inhibition ratio %): 67.26%
Erysiphe; 15 μg/mL
  Fungicidal activity (inhibition ratio %): 76.09%
Erysiphe; 20 μg/mL
  Fungicidal activity (inhibition ratio %): 79.02%
Botrytis cinerea [4]; 1 μg/mL
  Fungicidal activity (inhibition ratio %): —
Botrytis cinerea [4]; 5 μg/mL
  Fungicidal activity (inhibition ratio %): —
Botrytis cinerea [4]; 10 μg/mL
  Fungicidal activity (inhibition ratio %): 7.12%
Botrytis cinerea [4]; 15 μg/mL
  Fungicidal activity (inhibition ratio %): 13.46%
Botrytis cinerea [4]; 20 μg/mL
  Fungicidal activity (inhibition ratio %): 29.22%
Sclerotinia sclerotiorum [5]; 1 μg/mL
  Fungicidal activity (inhibition ratio %): 12.81%
Sclerotinia sclerotiorum [5]; 5 μg/mL
  Fungicidal activity (inhibition ratio %): 17.96%
Sclerotinia sclerotiorum [5]; 10 μg/mL
  Fungicidal activity (inhibition ratio %): 25.35%
Sclerotinia sclerotiorum [5]; 15 μg/mL
  Fungicidal activity (inhibition ratio %): 39.34%
Sclerotinia sclerotiorum [5]; 20 μg/mL
  Fungicidal activity (inhibition ratio %): 55.18%
Altemaria solani; 1 μg/mL
  Fungicidal activity (inhibition ratio %): 13.20%
Altemaria solani; 5 μg/mL
  Fungicidal activity (inhibition ratio %): 52.88%
Altemaria solani; 10 μg/mL
  Fungicidal activity (inhibition ratio %): 67.29%
Altemaria solani; 15 μg/mL
  Fungicidal activity (inhibition ratio %): 77.88%
Altemaria solani; 20 μg/mL
  Fungicidal activity (inhibition ratio %): 85.86%
[6]; 1 μg/mL
  Fungicidal activity (inhibition ratio %): —
[6]; 5 μg/mL
  Fungicidal activity (inhibition ratio %): 25.12%
[6]; 10 μg/mL
  Fungicidal activity (inhibition ratio %): 42.04%
[6]; 15 μg/mL
  Fungicidal activity (inhibition ratio %): 52.93%
[6]; 20 μg/mL
  Fungicidal activity (inhibition ratio %): 65.18%
Cercospora arachidicola; 1 μg/mL
  Fungicidal activity (inhibition ratio %): —
Cercospora arachidicola; 5 μg/mL
  Fungicidal activity (inhibition ratio %): 19.71%
Cercospora arachidicola; 10 μg/mL
  Fungicidal activity (inhibition ratio %): 31.25%
Cercospora arachidicola; 15 μg/mL
  Fungicidal activity (inhibition ratio %): 39.48%
Cercospora arachidicola; 20 μg/mL
  Fungicidal activity (inhibition ratio %): 56.68%
Phytophthora; 1 μg/mL
  Fungicidal activity (inhibition ratio %): 27.03%
Phytophthora; 5 μg/mL
  Fungicidal activity (inhibition ratio %): 31.96%
Phytophthora; 10 μg/mL
  Fungicidal activity (inhibition ratio %): 43.44%
Phytophthora; 15 μg/mL
  Fungicidal activity (inhibition ratio %): 65.08%
Phytophthora; 20 μg/mL
  Fungicidal activity (inhibition ratio %): 73.63%
Alternaria kikuchiana; 1 μg/mL
  Fungicidal activity (inhibition ratio %): 29.98%
Alternaria kikuchiana; 5 μg/mL
  Fungicidal activity (inhibition ratio %): 35.76%
Alternaria kikuchiana; 10 μg/mL
  Fungicidal activity (inhibition ratio %): 46.61%
Alternaria kikuchiana; 15 μg/mL
  Fungicidal activity (inhibition ratio %): 59.78%
Alternaria kikuchiana; 20 μg/mL
  Fungicidal activity (inhibition ratio %): 67.44%
[7]; 1 μg/mL
  Fungicidal activity (inhibition ratio %): 28.70%
[7]; 5 μg/mL
  Fungicidal activity (inhibition ratio %): 47.29%
[7]; 10 μg/mL
  Fungicidal activity (inhibition ratio %): 53.59%
[7]; 15 μg/mL
  Fungicidal activity (inhibition ratio %): 68.32%
[7]; 20 μg/mL
  Fungicidal activity (inhibition ratio %): 78.96%
[8]; 1 μg/mL
  Fungicidal activity (inhibition ratio %): 38.70%
[8]; 5 μg/mL
  Fungicidal activity (inhibition ratio %): 57.29%
[8]; 10 μg/mL
  Fungicidal activity (inhibition ratio %): 63.59%
[8]; 15 μg/mL
  Fungicidal activity (inhibition ratio %): 78.32%
[8]; 20 μg/mL
  Fungicidal activity (inhibition ratio %): 88.96%
Fusarium moniliforme; 1 μg/mL
  Fungicidal activity (inhibition ratio %): —
Fusarium moniliforme; 5 μg/mL
  Fungicidal activity (inhibition ratio %): 22.26%
Fusarium moniliforme; 10 μg/mL
  Fungicidal activity (inhibition ratio %): 36.71%
Fusarium moniliforme; 15 μg/mL
  Fungicidal activity (inhibition ratio %): 45.62%
Fusarium moniliforme; 20 μg/mL
  Fungicidal activity (inhibition ratio %): 61.79%
Sclerotinia sclerotiorum [9]; 1 μg/mL
  Fungicidal activity (inhibition ratio %): 12.55%
Sclerotinia sclerotiorum [9]; 5 μg/mL
  Fungicidal activity (inhibition ratio %): 34.23%
Sclerotinia sclerotiorum [9]; 10 μg/mL
  Fungicidal activity (inhibition ratio %): 51.21%
Sclerotinia sclerotiorum [9]; 15 μg/mL
  Fungicidal activity (inhibition ratio %): 64.29%
Sclerotinia sclerotiorum [9]; 20 μg/mL
  Fungicidal activity (inhibition ratio %): 71.84%
[10]; 1 μg/mL
  Fungicidal activity (inhibition ratio %): 37.85%
[10]; 5 μg/mL
  Fungicidal activity (inhibition ratio %): 41.18%
[10]; 10 μg/mL
  Fungicidal activity (inhibition ratio %): 53.51%
[10]; 15 μg/mL
  Fungicidal activity (inhibition ratio %): 58.17%
[10]; 20 μg/mL
  Fungicidal activity (inhibition ratio %): 65.73%
Botrytis cinerea [11]; 1 μg/mL
  Fungicidal activity (inhibition ratio %): —
Botrytis cinerea [11]; 5 μg/mL
  Fungicidal activity (inhibition ratio %): —
Botrytis cinerea [11]; 10 μg/mL
  Fungicidal activity (inhibition ratio %): 5.10%
Botrytis cinerea [11]; 15 μg/mL
  Fungicidal activity (inhibition ratio %): 9.98%
Botrytis cinerea [11]; 20 μg/mL
  Fungicidal activity (inhibition ratio %): 21.26%
